Tested on: lung cancer cell line (A549)
Test: tumor cell proliferation inhibition (CTG), lung cancer cell line
Type: cell-based
Settings: Homo sapiens, 72 hours

SMILES | IC50 [nM]
COc1cc2nccc(Oc3c(F)cc(NC(=O)NC4CC4)c(Cl)c3F)c2cc1C(=O)NCC(F)F [IIIb-08] | < 2500
NC(=O)c1cc2c(Oc3c(F)cc(NC(=O)NC4CC4)c(Cl)c3F)ccnc2cc1OCC1(N)CC1 [IIIb-61] | < 2500
COc1cc2nccc(Oc3c(F)cc(NC(=O)NC4CC4)c(Cl)c3F)c2cc1C(=O)NCC(F)(F)F [IIIb-09] | < 2500

Tested on: leukemia cell line (K562)
Test: tumor cell proliferation inhibition (CTG), leukemia cell line
Type: cell-based
Settings: Homo sapiens, 72 hours

SMILES | IC50 [nM]
COc1cc2nccc(Oc3c(F)cc(NC(=O)NC4CC4)c(Cl)c3F)c2cc1C(=O)NCC(F)F [IIIb-08] | < 5000
NC(=O)c1cc2c(Oc3c(F)cc(NC(=O)NC4CC4)c(Cl)c3F)ccnc2cc1OCC1(N)CC1 [IIIb-61] | < 5000
COc1cc2nccc(Oc3c(F)cc(NC(=O)NC4CC4)c(Cl)c3F)c2cc1C(=O)NCC(F)(F)F [IIIb-09] | < 5000

Tested on: not listed separately
Test: MTD toxicity test in rats
Type: in vivo
Settings: rat, in vivo, 150 mg/kg

SMILES | MTD toxicity test, clinical outcome
COc1cc2nccc(Oc3c(F)cc(NC(=O)NC4CC4)c(Cl)c3F)c2cc1C(=O)NCC(F)F [IIIb-08] | no abnormalities such as death
NC(=O)c1cc2c(Oc3c(F)cc(NC(=O)NC4CC4)c(Cl)c3F)ccnc2cc1OCC1(N)CC1 [IIIb-61] | no abnormalities such as death
COc1cc2nccc(Oc3c(F)cc(NC(=O)NC4CC4)c(Cl)c3F)c2cc1C(=O)NCC(F)(F)F [IIIb-09] | no abnormalities such as death

Same assay, conditions: rats, 150 mg/kg, QD, 14 days; heart, liver, lungs, kidneys, stomach, intestines and other organs

SMILES | autopsy results of organs
COc1cc2nccc(Oc3c(F)cc(NC(=O)NC4CC4)c(Cl)c3F)c2cc1C(=O)NCC(F)F [IIIb-08] | did not reveal any abnormal changes
NC(=O)c1cc2c(Oc3c(F)cc(NC(=O)NC4CC4)c(Cl)c3F)ccnc2cc1OCC1(N)CC1 [IIIb-61] | did not reveal any abnormal changes
COc1cc2nccc(Oc3c(F)cc(NC(=O)NC4CC4)c(Cl)c3F)c2cc1C(=O)NCC(F)(F)F [IIIb-09] | did not reveal any abnormal changes

Tested on: cervical cancer cell lines (Hela)
Test: tumor cell proliferation inhibition (CTG), cervical cancer cell line
Type: cell-based
Settings: Homo sapiens, 72 hours

SMILES | IC50 [nM]
COc1cc2nccc(Oc3c(F)cc(NC(=O)NC4CC4)c(Cl)c3F)c2cc1C(=O)NCC(F)F [IIIb-08] | < 5000
NC(=O)c1cc2c(Oc3c(F)cc(NC(=O)NC4CC4)c(Cl)c3F)ccnc2cc1OCC1(N)CC1 [IIIb-61] | < 5000
COc1cc2nccc(Oc3c(F)cc(NC(=O)NC4CC4)c(Cl)c3F)c2cc1C(=O)NCC(F)(F)F [IIIb-09] | < 5000

Tested on: kidney cancer cell line (Caki-1)
Test: tumor cell proliferation inhibition (CTG), kidney cancer cell line
Type: cell-based
Settings: Homo sapiens, 72 hours, read-out: Caki-1 (renal cancer) IC50

SMILES | IC50 [nM]
COc1cc2nccc(Oc3c(F)cc(NC(=O)NC4CC4)c(Cl)c3F)c2cc1C(=O)NCC(F)F [IIIb-08] | < 2500
NC(=O)c1cc2c(Oc3c(F)cc(NC(=O)NC4CC4)c(Cl)c3F)ccnc2cc1OCC1(N)CC1 [IIIb-61] | < 2500
COc1cc2nccc(Oc3c(F)cc(NC(=O)NC4CC4)c(Cl)c3F)c2cc1C(=O)NCC(F)(F)F [IIIb-09] | < 2500

Tested on: hepatocellular carcinoma cell line (Hep3B 2.1-7)
Test: tumor cell proliferation inhibition (CTG), hepatocellular carcinoma cell line
Type: cell-based
Settings: Homo sapiens, 72 hours

SMILES | IC50 [nM]
COc1cc2nccc(Oc3c(F)cc(NC(=O)NC4CC4)c(Cl)c3F)c2cc1C(=O)NCC(F)F [IIIb-08] | < 2500
NC(=O)c1cc2c(Oc3c(F)cc(NC(=O)NC4CC4)c(Cl)c3F)ccnc2cc1OCC1(N)CC1 [IIIb-61] | < 2500
COc1cc2nccc(Oc3c(F)cc(NC(=O)NC4CC4)c(Cl)c3F)c2cc1C(=O)NCC(F)(F)F [IIIb-09] | < 2500

Molecular target: RET (Homo sapiens (Human), UniProt P07949)
Test: kinase inhibition, Mobility-Shift Assay
Type: biochemical
Settings: 23 μM ATP

SMILES | IC50 [nM]
COc1cc2nccc(Oc3c(F)cc(NC(=O)NC4CC4)c(Cl)c3F)c2cc1C(=O)NCC(F)F [IIIb-08] | < 5
NC(=O)c1cc2c(Oc3c(F)cc(NC(=O)NC4CC4)c(Cl)c3F)ccnc2cc1OCC1(N)CC1 [IIIb-61] | < 5
COc1cc2nccc(Oc3c(F)cc(NC(=O)NC4CC4)c(Cl)c3F)c2cc1C(=O)NCC(F)(F)F [IIIb-09] | 5 to 10

Tested on: prostatic cancer (PC-3)
Test: tumor cell proliferation inhibition (CTG), PC-3
Type: cell-based
Settings: 72 hours

SMILES | IC50 [nM]
COc1cc2nccc(Oc3c(F)cc(NC(=O)NC4CC4)c(Cl)c3F)c2cc1C(=O)NCC(F)F [IIIb-08] | 5000 to 10000
NC(=O)c1cc2c(Oc3c(F)cc(NC(=O)NC4CC4)c(Cl)c3F)ccnc2cc1OCC1(N)CC1 [IIIb-61] | 5000 to 10000
COc1cc2nccc(Oc3c(F)cc(NC(=O)NC4CC4)c(Cl)c3F)c2cc1C(=O)NCC(F)(F)F [IIIb-09] | > 10000

Tested on: BXPC3, SNU16, Hep3B 2.1-7 subcutaneous tumors
Test: tumor suppression in nude mice with subcutaneously transplanted tumors
Type: in vivo
Settings: BXPC3, SNU16, Hep3B 2.1-7 transplants, within 3-4 weeks
Excerpt: These preferred compounds (e.g., IIIb-08, IIIb-09, IIIb-45, IIIb-50, IIIb-55, IIIb-56, IIIb-57, IIIb-58, IIIb-60, IIIb-61, IIIb-65) are currently being used to […] in nude mice subcutaneously transplanted with pancreatic cancer cell line (BXPC3), gastric cancer cell line (SNU16), liver cancer cell line (Hep3B 2.1-7) and other tumor suppressive effects have been observed in vivo, the tumor suppression rate of subcutaneous tumors in nude mice could reach 80-110% within 3-4 weeks. […] Therefore, the preferred compounds “IIIb-08, IIIb-09, IIIb-45, IIIb-50, IIIb-55, IIIb-56, IIIb-57, IIIb-58, IIIb-60, IIIb-61, IIIb-65” designed and synthesized by the present invention not only have better inhibitory activity, but also have better safety and drug-forming properties, which are valuable for further preclinical studies such as pharmacotoxicology and clinical trials.

SMILES | tumor suppression rate of subcutaneous tumors
COc1cc2nccc(Oc3c(F)cc(NC(=O)NC4CC4)c(Cl)c3F)c2cc1C(=O)NCC(F)F [IIIb-08] | 80-110%
NC(=O)c1cc2c(Oc3c(F)cc(NC(=O)NC4CC4)c(Cl)c3F)ccnc2cc1OCC1(N)CC1 [IIIb-61] | 80-110%
COc1cc2nccc(Oc3c(F)cc(NC(=O)NC4CC4)c(Cl)c3F)c2cc1C(=O)NCC(F)(F)F [IIIb-09] | 80-110%

Molecular target: VEGFR2 (KDR) (Homo sapiens (Human), UniProt P35968)
Sequence (P35968 20-1356): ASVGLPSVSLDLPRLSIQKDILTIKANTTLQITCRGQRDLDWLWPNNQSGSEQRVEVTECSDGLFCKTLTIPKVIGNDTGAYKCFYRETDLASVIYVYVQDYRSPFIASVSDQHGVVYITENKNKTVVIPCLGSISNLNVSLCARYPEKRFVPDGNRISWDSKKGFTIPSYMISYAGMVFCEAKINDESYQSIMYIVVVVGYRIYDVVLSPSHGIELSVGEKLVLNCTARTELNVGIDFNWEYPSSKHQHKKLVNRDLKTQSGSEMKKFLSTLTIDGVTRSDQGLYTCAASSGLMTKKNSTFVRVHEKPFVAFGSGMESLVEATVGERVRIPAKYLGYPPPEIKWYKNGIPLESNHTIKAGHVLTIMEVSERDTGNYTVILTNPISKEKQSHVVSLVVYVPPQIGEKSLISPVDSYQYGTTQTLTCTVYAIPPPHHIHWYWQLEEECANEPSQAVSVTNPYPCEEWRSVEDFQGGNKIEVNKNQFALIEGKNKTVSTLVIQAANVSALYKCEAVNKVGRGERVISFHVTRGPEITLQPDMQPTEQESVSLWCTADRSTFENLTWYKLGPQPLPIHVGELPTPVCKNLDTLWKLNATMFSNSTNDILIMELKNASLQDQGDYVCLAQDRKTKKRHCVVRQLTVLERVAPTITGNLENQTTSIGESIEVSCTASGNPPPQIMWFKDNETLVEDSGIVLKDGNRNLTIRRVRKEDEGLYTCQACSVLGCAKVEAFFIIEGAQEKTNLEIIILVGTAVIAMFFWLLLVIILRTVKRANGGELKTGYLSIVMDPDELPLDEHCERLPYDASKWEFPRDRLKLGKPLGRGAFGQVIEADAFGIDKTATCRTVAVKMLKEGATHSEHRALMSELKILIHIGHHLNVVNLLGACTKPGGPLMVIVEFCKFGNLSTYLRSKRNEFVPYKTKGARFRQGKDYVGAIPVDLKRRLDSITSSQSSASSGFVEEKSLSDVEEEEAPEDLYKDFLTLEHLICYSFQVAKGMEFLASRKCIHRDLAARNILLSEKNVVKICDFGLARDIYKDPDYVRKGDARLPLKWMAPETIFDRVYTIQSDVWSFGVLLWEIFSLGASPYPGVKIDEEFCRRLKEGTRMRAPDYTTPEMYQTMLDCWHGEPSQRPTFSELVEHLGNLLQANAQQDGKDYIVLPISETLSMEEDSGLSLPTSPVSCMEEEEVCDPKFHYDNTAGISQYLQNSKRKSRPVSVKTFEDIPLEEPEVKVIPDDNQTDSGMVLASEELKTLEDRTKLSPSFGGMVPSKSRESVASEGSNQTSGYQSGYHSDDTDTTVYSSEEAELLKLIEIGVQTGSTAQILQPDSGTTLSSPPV
Test: kinase inhibition, Mobility-Shift Assay
Type: biochemical
Settings: VEGFR2, 92 μM ATP

SMILES | IC50 [nM]
COc1cc2nccc(Oc3c(F)cc(NC(=O)NC4CC4)c(Cl)c3F)c2cc1C(=O)NCC(F)F [IIIb-08] | < 5
NC(=O)c1cc2c(Oc3c(F)cc(NC(=O)NC4CC4)c(Cl)c3F)ccnc2cc1OCC1(N)CC1 [IIIb-61] | < 5
COc1cc2nccc(Oc3c(F)cc(NC(=O)NC4CC4)c(Cl)c3F)c2cc1C(=O)NCC(F)(F)F [IIIb-09] | < 5

Molecular target: VEGFR3 (FLT4) (Homo sapiens (Human), UniProt P35916)
Sequence (P35916 25-1363): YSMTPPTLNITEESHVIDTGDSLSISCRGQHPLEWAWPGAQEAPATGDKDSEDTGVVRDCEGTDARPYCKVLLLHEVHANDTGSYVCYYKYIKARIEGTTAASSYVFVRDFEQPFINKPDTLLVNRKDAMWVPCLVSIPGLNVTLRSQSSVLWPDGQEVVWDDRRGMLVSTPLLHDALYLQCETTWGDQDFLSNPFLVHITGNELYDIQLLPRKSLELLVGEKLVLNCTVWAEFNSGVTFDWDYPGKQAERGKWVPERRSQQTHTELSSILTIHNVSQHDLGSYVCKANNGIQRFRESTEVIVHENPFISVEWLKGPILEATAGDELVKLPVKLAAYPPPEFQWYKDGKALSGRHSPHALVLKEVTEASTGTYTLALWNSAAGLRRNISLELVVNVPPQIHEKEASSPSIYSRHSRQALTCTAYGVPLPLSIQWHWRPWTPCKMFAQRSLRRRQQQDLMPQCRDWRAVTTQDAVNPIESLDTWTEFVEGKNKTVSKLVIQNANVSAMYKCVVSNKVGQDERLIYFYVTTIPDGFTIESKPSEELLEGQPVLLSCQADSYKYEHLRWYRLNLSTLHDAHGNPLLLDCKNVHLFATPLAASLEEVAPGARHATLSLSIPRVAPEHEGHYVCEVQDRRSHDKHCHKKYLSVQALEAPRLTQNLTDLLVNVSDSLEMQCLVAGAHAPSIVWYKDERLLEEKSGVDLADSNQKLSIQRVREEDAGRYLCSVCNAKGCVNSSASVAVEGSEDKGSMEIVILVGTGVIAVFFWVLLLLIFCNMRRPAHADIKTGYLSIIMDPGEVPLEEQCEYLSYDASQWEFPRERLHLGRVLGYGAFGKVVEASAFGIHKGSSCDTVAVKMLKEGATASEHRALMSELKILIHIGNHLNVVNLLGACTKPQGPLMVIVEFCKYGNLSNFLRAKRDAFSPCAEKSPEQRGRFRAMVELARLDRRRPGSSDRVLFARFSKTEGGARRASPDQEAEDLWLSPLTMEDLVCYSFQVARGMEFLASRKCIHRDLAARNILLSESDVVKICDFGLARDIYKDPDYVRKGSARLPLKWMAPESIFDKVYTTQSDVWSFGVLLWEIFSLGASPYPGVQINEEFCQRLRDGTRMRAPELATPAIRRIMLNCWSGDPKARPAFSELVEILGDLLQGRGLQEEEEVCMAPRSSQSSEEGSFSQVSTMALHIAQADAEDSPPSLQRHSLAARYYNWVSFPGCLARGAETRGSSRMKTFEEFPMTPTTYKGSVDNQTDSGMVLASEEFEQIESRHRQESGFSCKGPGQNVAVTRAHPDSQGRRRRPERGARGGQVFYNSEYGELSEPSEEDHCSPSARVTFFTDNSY
Test: kinase inhibition, Mobility-Shift Assay
Type: biochemical
Settings: 84 μM ATP

SMILES | IC50 [nM]
COc1cc2nccc(Oc3c(F)cc(NC(=O)NC4CC4)c(Cl)c3F)c2cc1C(=O)NCC(F)F [IIIb-08] | < 5
NC(=O)c1cc2c(Oc3c(F)cc(NC(=O)NC4CC4)c(Cl)c3F)ccnc2cc1OCC1(N)CC1 [IIIb-61] | < 5
COc1cc2nccc(Oc3c(F)cc(NC(=O)NC4CC4)c(Cl)c3F)c2cc1C(=O)NCC(F)(F)F [IIIb-09] | < 5

Molecular target: FGFR2 (Homo sapiens (Human), UniProt P21802)
Test: kinase inhibition, Mobility-Shift Assay
Type: biochemical
Settings: 1.9 μM ATP

SMILES | IC50 [nM]
COc1cc2nccc(Oc3c(F)cc(NC(=O)NC4CC4)c(Cl)c3F)c2cc1C(=O)NCC(F)F [IIIb-08] | < 50
NC(=O)c1cc2c(Oc3c(F)cc(NC(=O)NC4CC4)c(Cl)c3F)ccnc2cc1OCC1(N)CC1 [IIIb-61] | < 50
COc1cc2nccc(Oc3c(F)cc(NC(=O)NC4CC4)c(Cl)c3F)c2cc1C(=O)NCC(F)(F)F [IIIb-09] | 50 to 100

Molecular target: hERG potassium channels (Homo sapiens (Human), UniProt Q12809)
Sequence (Q12809 whole entry): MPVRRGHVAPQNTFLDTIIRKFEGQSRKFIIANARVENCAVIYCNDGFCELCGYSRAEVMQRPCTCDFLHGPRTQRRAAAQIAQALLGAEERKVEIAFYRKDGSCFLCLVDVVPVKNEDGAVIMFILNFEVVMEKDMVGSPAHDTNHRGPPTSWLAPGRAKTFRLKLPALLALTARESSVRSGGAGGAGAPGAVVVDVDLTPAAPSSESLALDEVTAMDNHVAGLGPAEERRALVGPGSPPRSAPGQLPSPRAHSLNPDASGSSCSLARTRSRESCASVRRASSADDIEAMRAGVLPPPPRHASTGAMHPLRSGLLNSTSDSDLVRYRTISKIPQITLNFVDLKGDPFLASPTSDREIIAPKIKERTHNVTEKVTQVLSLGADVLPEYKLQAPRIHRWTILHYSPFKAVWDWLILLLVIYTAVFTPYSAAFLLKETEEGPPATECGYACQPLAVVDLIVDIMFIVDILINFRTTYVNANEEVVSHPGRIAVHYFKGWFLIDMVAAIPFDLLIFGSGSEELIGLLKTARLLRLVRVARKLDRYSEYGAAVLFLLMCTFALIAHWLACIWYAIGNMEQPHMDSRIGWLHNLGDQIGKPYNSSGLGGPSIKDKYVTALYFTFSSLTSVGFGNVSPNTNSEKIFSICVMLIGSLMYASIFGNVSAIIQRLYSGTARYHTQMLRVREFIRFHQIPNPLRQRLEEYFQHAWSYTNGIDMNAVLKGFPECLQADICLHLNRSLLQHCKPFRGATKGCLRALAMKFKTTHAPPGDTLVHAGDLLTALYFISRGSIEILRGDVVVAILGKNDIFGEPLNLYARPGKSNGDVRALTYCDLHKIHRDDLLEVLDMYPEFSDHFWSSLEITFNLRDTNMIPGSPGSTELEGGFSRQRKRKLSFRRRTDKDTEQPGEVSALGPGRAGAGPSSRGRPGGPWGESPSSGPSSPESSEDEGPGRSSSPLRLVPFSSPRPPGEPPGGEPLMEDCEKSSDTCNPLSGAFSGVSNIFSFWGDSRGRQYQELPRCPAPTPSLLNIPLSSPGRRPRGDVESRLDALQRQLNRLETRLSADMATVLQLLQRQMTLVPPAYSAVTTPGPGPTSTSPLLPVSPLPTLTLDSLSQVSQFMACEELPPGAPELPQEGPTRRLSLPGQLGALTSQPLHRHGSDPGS
Test: in vitro inhibitory effect of hERG, whole-cell patch clamp
Type: cell-based
Settings: whole-cell recording, room temperature

SMILES | IC50 [nM]
COc1cc2nccc(Oc3c(F)cc(NC(=O)NC4CC4)c(Cl)c3F)c2cc1C(=O)NCC(F)F [IIIb-08] | > 30000
NC(=O)c1cc2c(Oc3c(F)cc(NC(=O)NC4CC4)c(Cl)c3F)ccnc2cc1OCC1(N)CC1 [IIIb-61] | > 30000
COc1cc2nccc(Oc3c(F)cc(NC(=O)NC4CC4)c(Cl)c3F)c2cc1C(=O)NCC(F)(F)F [IIIb-09] | > 30000

Tested on: pancreatic cancer cell line (BXPC3)
Test: tumor cell proliferation inhibition (CTG), pancreatic cancer cell line
Type: cell-based
Settings: Homo sapiens, BXPC-3, 72 hours

SMILES | IC50 [nM]
COc1cc2nccc(Oc3c(F)cc(NC(=O)NC4CC4)c(Cl)c3F)c2cc1C(=O)NCC(F)F [IIIb-08] | < 5000
NC(=O)c1cc2c(Oc3c(F)cc(NC(=O)NC4CC4)c(Cl)c3F)ccnc2cc1OCC1(N)CC1 [IIIb-61] | < 5000
COc1cc2nccc(Oc3c(F)cc(NC(=O)NC4CC4)c(Cl)c3F)c2cc1C(=O)NCC(F)(F)F [IIIb-09] | < 5000

Tested on: gastric cancer cell line (SNU16)
Test: tumor cell proliferation inhibition (CTG), gastric cancer cell line
Type: cell-based
Settings: Homo sapiens, SNU-16, 72 hours, read-out: SUN16 IC50

SMILES | IC50 [nM]
COc1cc2nccc(Oc3c(F)cc(NC(=O)NC4CC4)c(Cl)c3F)c2cc1C(=O)NCC(F)F [IIIb-08] | < 5000
NC(=O)c1cc2c(Oc3c(F)cc(NC(=O)NC4CC4)c(Cl)c3F)ccnc2cc1OCC1(N)CC1 [IIIb-61] | < 5000
COc1cc2nccc(Oc3c(F)cc(NC(=O)NC4CC4)c(Cl)c3F)c2cc1C(=O)NCC(F)(F)F [IIIb-09] | < 5000

Molecular target: VEGFR1 (FLT1) (Homo sapiens (Human), UniProt P17948)
Sequence (P17948 27-1338): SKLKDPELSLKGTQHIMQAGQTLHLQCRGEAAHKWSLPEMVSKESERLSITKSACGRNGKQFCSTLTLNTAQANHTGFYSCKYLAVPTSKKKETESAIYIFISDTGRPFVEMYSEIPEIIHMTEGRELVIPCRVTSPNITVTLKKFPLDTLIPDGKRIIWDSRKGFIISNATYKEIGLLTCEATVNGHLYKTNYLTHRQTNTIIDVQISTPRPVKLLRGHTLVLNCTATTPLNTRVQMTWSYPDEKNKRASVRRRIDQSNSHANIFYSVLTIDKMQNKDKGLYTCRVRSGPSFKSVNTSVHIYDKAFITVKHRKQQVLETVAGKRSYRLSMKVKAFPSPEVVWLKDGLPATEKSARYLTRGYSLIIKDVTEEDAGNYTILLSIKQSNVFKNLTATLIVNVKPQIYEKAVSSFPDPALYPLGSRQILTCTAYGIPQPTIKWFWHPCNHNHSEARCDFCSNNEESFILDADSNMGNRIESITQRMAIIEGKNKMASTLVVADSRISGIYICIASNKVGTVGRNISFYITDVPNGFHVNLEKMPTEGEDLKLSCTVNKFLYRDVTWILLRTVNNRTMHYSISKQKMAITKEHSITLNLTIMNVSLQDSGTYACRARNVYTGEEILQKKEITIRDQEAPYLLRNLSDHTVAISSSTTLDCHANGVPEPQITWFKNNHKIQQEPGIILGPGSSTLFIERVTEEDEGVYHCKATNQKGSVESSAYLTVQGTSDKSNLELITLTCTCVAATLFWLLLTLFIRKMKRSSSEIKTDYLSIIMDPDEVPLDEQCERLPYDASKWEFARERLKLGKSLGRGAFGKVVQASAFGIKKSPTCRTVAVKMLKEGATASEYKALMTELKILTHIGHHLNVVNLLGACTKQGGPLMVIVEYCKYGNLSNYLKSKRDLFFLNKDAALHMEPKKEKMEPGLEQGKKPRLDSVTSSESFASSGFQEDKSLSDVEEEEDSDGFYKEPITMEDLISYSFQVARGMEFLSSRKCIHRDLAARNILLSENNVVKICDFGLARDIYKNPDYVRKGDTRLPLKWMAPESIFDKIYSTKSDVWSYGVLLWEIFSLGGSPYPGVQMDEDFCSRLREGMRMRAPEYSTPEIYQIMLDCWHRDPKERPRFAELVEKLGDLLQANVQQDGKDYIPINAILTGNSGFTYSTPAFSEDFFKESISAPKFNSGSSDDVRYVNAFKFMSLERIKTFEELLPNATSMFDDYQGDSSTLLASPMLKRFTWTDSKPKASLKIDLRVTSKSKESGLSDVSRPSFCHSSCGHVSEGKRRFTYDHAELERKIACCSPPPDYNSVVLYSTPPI
Test: kinase inhibition, Mobility-Shift Assay
Type: biochemical
Settings: 278 μM ATP

SMILES | IC50 [nM]
COc1cc2nccc(Oc3c(F)cc(NC(=O)NC4CC4)c(Cl)c3F)c2cc1C(=O)NCC(F)F [IIIb-08] | < 5
NC(=O)c1cc2c(Oc3c(F)cc(NC(=O)NC4CC4)c(Cl)c3F)ccnc2cc1OCC1(N)CC1 [IIIb-61] | < 5
COc1cc2nccc(Oc3c(F)cc(NC(=O)NC4CC4)c(Cl)c3F)c2cc1C(=O)NCC(F)(F)F [IIIb-09] | 5 to 10

— patent US11912663B2, “Multi-targeted tyrosine kinase inhibitors and their pharmaceutical uses” (Shanghai AB PharmaTech Ltd., priority 2021, dated 2024)
